# Columns and labels:
# HCT116-vector cells = test: Boyden chamber transwell migration assay; format: cell-based, human; settings: 24 h
# Procedure: (§1) HCT116, SW620, LS174T, SW480 and DLD-1 cells were used in cell migration and invasion analysis performed with Boyden chamber assay. 400 μL containing 2.5×10^5 cells were seeded into each transwell chamber with filter membranes of 12.0 μm pore size (Millipore, Schwalbach, Germany). For invasion filter membranes were coated with 50 μL Matrigel (diluted 1:3 in RPMI-1640; BD Biosciences) 10 minutes before cells were seeded. Fresh medium (600 μL) were added to the bottom chamber and cells were allowed to attach to the insets for 15 hours. Both chambers were treated with 1 μM niclosamide or the respective amount of DMSO and incubated at 37° C. and 5% CO2 in a humidified incubator for 24 hours. Afterwards insets were removed and cells that had migrated through the membrane to the lower chamber were trypsinized and counted in a Neubauer chamber (LO-Laboroptik, Bad Homburg, Germany). Each well was counted ten times. Each migration or invasion experiment was performed in duplicate. The average number of migrated or invaded cells was determined for at least three independent experiments.
# (§2) (A) Cell migration of HCT116-vector and HCT116-S100A4 cells exposed to niclosamide treatment. Cells were treated with 1 μM niclosamide for 24 hours and migration rates were measured with Boyden chamber assay. (B) Cell invasion of HCT116-vector and HCT116-S100A4 cells exposed to niclosamide treatment. Cells were treated with 1 μM niclosamide for 24 hours and cell invasion was determined by Boyden chamber assay. (C) Directed migration of HCT116-vector and HCT116-S100A4 cells exposed to niclosamide treatment analyzed by wound healing assay. Wounds of 300 μM width were set in a 60% confluent monolayer of HCT116-vector or HCT116-S100A4 cells on day 1. Cells were treated daily with 1 μM niclosamide for 4 days. Microphotographs of day 4 are presented here with black lines indicating margins of entered wound of day 1; scale bar represents 200 μM. Data represents three independent experiments. (D) Adhesive cell proliferation of HCT116-vector and HCT116-S100A4 cells exposed to niclosamide treatment. Cells were treated daily with 1 μM niclosamide and cell viability was determined with MTT assay. (E) Anchorage-independent cell growth of HCT116-vector and HCT116-S100A4 cells exposed to niclosamide treatment. Cells were plated as single cells into 0.33% (w/v) agarose and treatment (solvent or 1 μM niclosamide) containing medium. After 7 days colonies were visualized by light microscopy at 10× (overview) and 40× (single colony) magnification. (F) Quantification of colonies formed. Number of colonies (of more than 4 cells) was counted and normalized to solvent-treated HCT116-vector cells. Differences of niclosamide vs. solvent-treated cells were analyzed by Student's t test. […]
# HCT116-S100A4 cells = test: Boyden chamber transwell migration assay; format: cell-based, human; settings: 1 μM, 24 h, statistically not significant
# Procedure: as §1, §2
# DLD-1 cells = test: Boyden chamber invasion assay (Matrigel); format: cell-based, human; settings: 1 μM, 24 h
# Procedure: as §1
# (§3) (A) S100A4 expression under niclosamide treatment. Cells were treated with 1 μM niclosamide for 24 hours. S100A4 expression was analyzed with qRT-PCR and immunoblot. (B) Cell migration under niclosamide treatment. Migration rates of cells treated with 1 μM niclosamide for 24 hours were determined in a Boyden chamber assay values were normalized to solvent-treated SW620 cells. (C) Cell invasion under niclosamide treatment. Cells were seeded onto Matrigel covered transwells and treated with 1 μM niclosamide for 24 hours. Invaded cells in the lower chamber were counted and normalized to solvent-treated SW620 cells. Differences in solvent vs. niclosamide-treated cells were analyzed by Student's t test. Data represent mean±SE of at least two independent experiments each performed in triplicate. (D) Directed migration under niclosamide treatment. Wounds of 300 μM width were set in a 60% confluent monolayer of cells on day 1. Cells were treated daily with 1 μM niclosamide for 4 days. Microphotographs of day 4 are presented here with black lines indicating margins of the wound on day 1; scale bar represents 200 μM. Directed migration data shown are representatives of three independent experiments. (E) Adhesive cell proliferation under niclosamide treatment. Cells were treated daily with 1 μM niclosamide. The amount of viable cells per well was determined by MTT assay. (F) Anchorage-independent cell growth under niclosamide treatment. Cells were plated as single cells into 0.33% (w/v) agarose and treatment (solvent or 1 μM niclosamide) containing medium. After 7 days colonies were visualized by light microscopy at 10× (overview) and 40× (single colony) magnification. (G) Quantification of colonies formed. Number of colonies (of more than 4 cells) was counted and normalized to solvent-treated SW620 cells. Differences in solvent vs. niclosamide-treated cells were analyzed by Student's t test. Data represent mean mean±SE of at least two independent experiments each performed in duplicates.
# LS174T cells = test: Boyden chamber invasion assay (Matrigel); format: cell-based, human; settings: 1 μM, 24 h
# Procedure: as §1, §3
# SW620 cells = test: Boyden chamber invasion assay (Matrigel); format: cell-based, human; settings: 1 μM, 24 h
# Procedure: as §1, §3
# SW480 cells = test: Boyden chamber invasion assay (Matrigel); format: cell-based, human; settings: 1 μM, 24 h
# Procedure: as §1, §3
# [1] = mice chronically fed 200 mg/kg, two years observation time; cited from earlier work
compound,measurement,setting,value
"O=C(Nc1ccc([N+](=O)[O-])cc1Cl)c1cc(Cl)ccc1O [niclosamide, 2′,5-dichloro-4′-nitrosalicylanilide]","migration, mean difference control vs niclosamide",HCT116-vector cells; 1 μM,57.0%
same,activity at 1 µM,"HCT116-vector cells; Homo sapiens, read-out: number of migrated cells, mean % of control",43%
same,"migration rate, mean %",HCT116-S100A4 cells; solvent control 145.0%,117.0%
same,"migration, mean difference control vs niclosamide",HCT116-S100A4 cells,28%
same,invasion rate,DLD-1 cells,not affected
same,"invasion, mean difference control vs niclosamide",LS174T cells,39.5%
same,"cell invasion, mean % (normalized to solvent-treated SW620 cells)",LS174T cells; solvent control 63.2%,23.6%
same,"invasion, mean difference control vs niclosamide",SW620 cells,74.9%
same,"cell invasion, mean % (normalized to solvent-treated SW620 cells)",SW620 cells; solvent control 100.0%,25.1%
same,"invasion, mean difference control vs niclosamide",SW480 cells,34.9%
same,"cell invasion, mean % (normalized to solvent-treated SW620 cells)",SW480 cells; solvent control 47.7%,12.8%
same,adverse effects,[1],no adverse effects
